Measured values taken from paper PMC9703632, “The noncatalytic regions of the tyrosine kinase Tnk1 are important for activity and substrate specificity” (The Journal of Biological Chemistry, 2022).
Each block holds one molecule with its values, some of them ahead of it.

Tests used:
[1] = target: T1, Tnk1 (thirty-eight negative kinase 1) (Homo sapiens, UniProt Q13470); experiment: […]-ATP phosphocellulose kinase assay, WASP peptide, dose-response; assay type: biochemical
T1 construct: Tnk1^ΔCT, residues 1-510 (SAM, kinase and SH3 domains), N-terminal 6x-His and GST tags, Sf9
T1 sequence (Q13470 1-510 isoform Q13470-2): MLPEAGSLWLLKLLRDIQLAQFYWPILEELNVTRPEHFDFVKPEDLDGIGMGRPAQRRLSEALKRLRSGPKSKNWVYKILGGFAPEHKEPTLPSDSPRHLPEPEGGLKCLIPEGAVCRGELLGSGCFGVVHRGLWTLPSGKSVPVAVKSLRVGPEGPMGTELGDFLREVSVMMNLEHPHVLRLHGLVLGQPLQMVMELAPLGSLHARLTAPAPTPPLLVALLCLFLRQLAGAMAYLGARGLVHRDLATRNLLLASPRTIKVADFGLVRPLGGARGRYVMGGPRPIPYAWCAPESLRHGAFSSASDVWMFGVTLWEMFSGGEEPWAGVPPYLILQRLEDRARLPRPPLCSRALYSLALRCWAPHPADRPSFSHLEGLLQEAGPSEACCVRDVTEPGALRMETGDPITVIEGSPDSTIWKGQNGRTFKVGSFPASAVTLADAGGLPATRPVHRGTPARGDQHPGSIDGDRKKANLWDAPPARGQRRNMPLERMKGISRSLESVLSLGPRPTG

[2] = target: T1, Tnk1 (thirty-eight negative kinase 1); experiment: single-concentration ([…]) inhibition, […]-ATP phosphocellulose kinase assay, WASP peptide; assay type: biochemical; conditions: read-out: % inhibition at 10 μM
[3] = substrate: Nc1ncnc2c1ncn2[C@@H]1O[C@H](COP(=O)(O)OP(=O)(O)OP(=O)(O)O)[C@@H](O)[C@H]1O; experiment: purified protein; assay type: biochemical, Homo sapiens; conditions: MgCl2

Molecule: CN1CCN(c2ccc(Nc3ncc(Cl)c(NC[C@H]4CCCO4)n3)cc2)CC1 [(R)-9b]
- IC50 [1]: 470 nM

- inhibition at 10 µM [2]: 30 to 40%
Molecule: C#Cc1cccc(Nc2ncnc3cc(OCCOC)c(OCCOC)cc23)c1 [erlotinib]

Molecule: COc1cc2ncnc(Nc3ccc(F)c(Cl)c3)c2cc1OCCCN1CCOCC1 [gefitinib]
- inhibition at 10 µM [2]: 30 to 40%

B1: Tnk1 (thirty-eight negative kinase 1) (Homo sapiens) (protein)
chain: T1 sequence (Q13470 1-510 isoform Q13470-2)
notes: Tnk1^ΔCT, residues 1-510 (SAM, kinase and SH3 domains), N-terminal 6x-His and GST tags, Sf9
- Km [3]: 70 µM
